From publication PMC9101188, “Human α-Defensin-6 Neutralizes Clostridioides difficile Toxins TcdA and TcdB by Direct Binding” (International Journal of Molecular Sciences, 2022)
No end group written: not given here.

What was measured:
TcdB [1] = conditions: SPR, β-def-1 6 µM (control); pH 7.0, 25 °C, 25 µL/min, 4 min injection
Description: (A) 2400 RUs of biotinylated TcdB were immobilized via streptavidin-biotin binding onto a streptavidin sensor chip, and α-def-6 (concentrations as indicated) was applied to the chip for 4 min followed by a dissociation phase with a flow of running buffer. A solution of 6 µM of α-def-6 was injected twice to assess reproducibility, and β-def-1 (6 µM) served as a control. The flow rate was 25 µL/min.
TcdB was biotinylated via EZ-Link^TM Sulfo-NHS-Biotin (Thermo Fisher Scientific, Waltham, MA, USA) according to the manufacturer’s protocol. Briefly, TcdB was incubated with Sulfo-NHS-Biotin for 30 min at room temperature (RT). To remove the excess non-reacted biotin, TcdB was rebuffered with a Zeba^TM Spin Desalting Column (Thermo Fisher Scientific, Waltham, MA, USA). The successful biotinylation was verified via Western blotting and detection with peroxidase-conjugated streptavidin (1:2500, F. Hoffmann-La Roche AG, Basel, Switzerland).
The binding of α-def-6 to biotinylated TcdB was analyzed via surface plasmon resonance spectroscopy (SPR) with a Reichert SPR7500DC SPR spectrometer (Reichert Technologies, Buffalo, NY, USA). All analytes were dialyzed in running buffer (10 mM HEPES, 150 mM NaCl, 50 µM EDTA, 0.005% (v/v) Tween®20, pH 7.0) beforehand. Experiments were performed with a flow rate of 25 µL/min at 25 °C. […]

[2] = tested on: bacterial toxins including TcdB; conditions: cited from earlier work
glucosyltransferase = conditions: control in UDP-Glo assay at 10 mM; ref [29]; cited from earlier work
Description: Based on the finding that TcdB directly binds to α-def-6 in vitro, a set of experiments was performed to investigate the consequences of this interaction for TcdB. Although α-def-6 and TcdB interact directly, the release of the glucosyltransferase domain by the autoprotease domain in the presence of inositol hexakisphosphate (InsP6) was not affected (Figure 1B).

zebrafish embryos = conditions: in vivo
TcdA, TcdB and CDT = conditions: ref [25],[26]; cited from earlier work
Excerpt: (§1) The benchmark for treating CDIs is still the use of some specific antibiotics such as vancomycin, metronidazole or fidaxomicin [20]. More and more attention is also being paid to the direct inactivation of the secreted toxins, for example by using anti-toxin-antibodies such as bezlotoxumab or actoxumab. Following the approach of directly inactivating the secreted toxins and based on previous findings of our group and of others, we investigated the effects of human endogenous antimicrobial peptides on the C. difficile toxins TcdA and TcdB. Here, of particular interest is the group ...

bacterial protein toxins = conditions: ref [51]; cited from earlier work
Excerpt: There is increasing evidence that α-def-6 represents an outlier among the α-defensins, which is also noticeable in the context of bacterial toxins. Anti-toxin activities have already been described for several α-defensins.

TcdB autoprotease domain = test: In vitro autoprocessing of TcdB (InsP6-induced autoprotease activity); assay type: biochemical, C. difficile VPI 10463; conditions: NEM 1 mM; TcdB 2 µg, InsP6 1 mM; 1 h, 37 °C, pH 7.4 (n = 2)
Description: (§2) The flow rate was 25 µL/min. […] A representative gel is shown (n = 2). […] GAPDH served as the loading control. A representative Western blot is shown.
The effects of α-def-6 on TcdB autoprocessing by its intrinsic cysteine protease activity were analyzed. […] Inositol hexakisphosphate (1 mM, Santa Cruz Biotechnology, Dallas, TX, USA) was added to the samples to induce autoprocessing. N-Ethylmaleimide (1 mM, Sigma Aldrich by Merck KGaA, Darmstadt, Germany) served as positive control for the inhibition of TcdB-autoprocessing. The reactions were stopped by addition of a Laemmli buffer and heat denaturation (95 °C). For the analysis, the samples were electrophoresed on 8% SDS polyacrylamide gels, and proteins were visualized by Coomassie staining.

TcdB [3] = conditions: ref [24]; cited from earlier work
bacteria = conditions: ref [46]; cited from earlier work
Excerpt: as §1, with “TcdB. […] The administration” for “TcdB. Here,”, “of α-def-6 protected human cells from TcdB, but also from” for “of particular interest is”, “the closely related TcdA and the clinically more relevant combination of both TcdA and TcdB. Exemplarily, the protective effect could be confirmed for TcdB in vivo using the zebrafish embryo” for “the group”

TcdB glucosyltransferase = test: UDP-Glo glucosyltransferase assay; assay type: biochemical, C. difficile VPI 10463; conditions: TcdB 200 pM, recombinant Rac1 5 µM, UDP-glucose 100 µM, 1 h, 37 °C, pH 7.5, luminescence (n ≥ 3)
Description: as §2
UDP-Glo™ Glucosyltransferase assay with UDP-Glucose (Promega Corporation, Madison, WI, USA) was performed according to the manufacturer’s protocol. Briefly, TcdB (200 pM) was incubated in glucosylation buffer (50 mM HEPES, 100 mM KCl, 2 mM MgCl2, 1 mM MnCl2, 100 mg/L BSA, pH 7.5) with various concentrations of the respective inhibitors in a final volume of 40 µL. 5 µM recombinant Rac1 was included in the samples as a substrate. […] Castanospermine (10 mM, Santa Cruz Biotechnology, Dallas, TX, USA) served as control for inhibition of glucosyltransferase activity of TcdB. To stop the reaction, three times 10 µL of each sample were transferred to a white half area 96 well microplate (Greiner Bio-One International GmbH, Kremsmünster, Austria) combined with 10 µL of UDP Detection Reagent and mixed at 1000 rpm for 30 s on a plate shaker (Titramax 1000, Heidolph Instruments GmbH & Co. KG, Schwabach, Germany). Luminescence was recorded after 15–60 min via a Tecan infinite M1000 Pro plate reader (Tecan, Männdorf, Switzerland) with an integration time of 750 ms.

β-def-1: β-defensin used as control to exclude non-specific interactions; purchased from Pepta Nova (DHYNCVSSGGQCLYSACPIFTKIQGTCYRGKAKCCK; ends and bridges not checked; cysteine pairing not given here) [reference compound]
interaction with immobilized TcdB, compared to α-def-6 (TcdB [1]): much weaker in combination with a faster washout
interaction with bacterial toxins including TcdB [2]: do not interact with bacterial toxins including TcdB

O[C@H]1[C@H](O)[C@@H](O)CN2CC[C@H](O)[C@H]12 [castanospermine]
inhibition of glucosyltransferase (glucosyltransferase): established glucosyltransferase inhibitor

Abamectin [reference compound]
neurotoxicity (zebrafish embryos): causes neurotoxicity

α-defensin-1: human neutrophil peptide 1, α-defensin cited from earlier work [reference compound]
inactivation of TcdA, TcdB and CDT (TcdA, TcdB and CDT): inactivate TcdA and CDT, in addition to TcdB
destabilization of toxin secondary and tertiary structures (local unfolding) (bacterial protein toxins): leads to the destabilization of secondary and tertiary structures

CCN1C(=O)C=CC1=O [NEM, N-ethylmaleimide, reference compound]
autocatalytic processing of TcdB (effect of control inhibitor) (TcdB autoprotease domain): prevented the autocatalytic processing of TcdB

B1: α-def-5: structurally similar defensin; purchased from Pepta Nova (peptide, UniProt Q01523 20-94, looked up)
Defensin alpha 5: ESLQERADEATTQKQSGEDNQDLAISFAGNGLSALRTSGSQARATCYCRTGRCATRESLSGVCEISGRLYRLCCR
modifications: Defensin-5
notes: structurally similar defensin; purchased from Pepta Nova
inhibition of glucosyltransferase and glucosylhydrolase activity of TcdB (TcdB [3]): directly inhibits the glucosyltransferase and glucosylhydrolase activity of TcdB
biocidal / antimicrobial activity (bacteria): significant biocidal activity against invading pathogens
inactivation of TcdA, TcdB and CDT (TcdA, TcdB and CDT): inactivate TcdA and CDT, in addition to TcdB
inhibition of glucosyltransferase activity of TcdB (TcdB glucosyltransferase): clear concentration-dependent reduction of glucosyltransferase activity
